Results: patent publication US7838025B2, “Products and methods for maintaining or increasing ceramide levels in skin” (Kimberly-Clark Worldwide, Inc., priority 2002, dated 2010)

Legend:
[1] = test system: ceramidase (infant fecal extract); experiment: CAST Ceramidase Activity Screening Test; format: biochemical; details: relative to positive control, above 1 enhancer, below 1 inhibitor, C5 ceramide substrate, 18 hours, 25° C., PBS pH=7.4
Procedure: Agents, such as botanical extracts and related compounds, for example, are tested for their ability to decrease the activity of ceramidase in a ceramidase/ceramide system. A decrease in the activity of ceramidase results in an increase in the level of ceramides. The Ceramidase Activity Screening Test is completed as follows:
Step 1: Preparation of Testing Solution Comprising Ceramidase (Fecal Extract), Agent, and Ceramide: Combine the following to prepare a 100 microliter test solution: (1) 10 microliters of agent where the agent is an aqueous solution or oil (if the agent is a powder solid, prepare 10 microliters of a 0.1 microgram/milliliter solution by dissolving the appropriate amount of powder or solid in Phosphate Buffered Saline, pH=7.4); (2) 10 microliters of infant fecal extract in Phosphate Buffered Saline, pH=7.4 prepared by extracting 1 gram of infant feces in 9 mL of Phosphate Buffered Saline, pH=7.4, and vortexing the extraction for about 2 minutes followed by centrifugation to remove any solids; (3) 10 microliters of 250 microgram/milliliter C5 ceramide in Phosphate Buffered Saline, pH=7.4; and (4) 70 microliters of Phosphate Buffered Saline, pH=7.4.
Step 2: Preparation of Control Testing Solution Comprising Ceramidase and Ceramide: Combine the following to prepare a 100 microliter test solution: (1) 10 microliters of infant fecal extract in Phosphate Buffered Saline, pH=7.4; (2) 10 microliters of 250 microgram/milliliter BIODIPY FL C5 ceramide (Molecular Probes, Eugene, Wash.) in Phosphate Buffered Saline, pH=7.4; and (3) 80 microliters of Phosphate Buffered Saline, pH=7.4. […]
Step 3: Illuminate each plate with a 364 nanometer light source and take pictures with a suitable camera, such as a digital Kodak DC 40. The digital image is transferred as a TIFF file to the Alpha Innotech Flourchem Plate Imaging System and analyzed as described above with similar positive (substrate and ceramidase) and negative (substrate and no enzyme) controls. […]

sphingomyelinase = molecular target: T1, sphingomyelinase (Bacillus cereus, UniProt P11889); experiment: SAST Sphingomyelinase Activity Screening Test; format: biochemical; details: test band brightness divided by average of positive controls; above 1 enhancer, below 1 inhibitor; BODIPY FL C5-Sphingomyelin substrate, 30 minutes, 25° C., PBS pH=7.4
T1 construct: purchased Sigma Chemical, St. Louis, Mo; S7651
T1 sequence (P11889 28-333): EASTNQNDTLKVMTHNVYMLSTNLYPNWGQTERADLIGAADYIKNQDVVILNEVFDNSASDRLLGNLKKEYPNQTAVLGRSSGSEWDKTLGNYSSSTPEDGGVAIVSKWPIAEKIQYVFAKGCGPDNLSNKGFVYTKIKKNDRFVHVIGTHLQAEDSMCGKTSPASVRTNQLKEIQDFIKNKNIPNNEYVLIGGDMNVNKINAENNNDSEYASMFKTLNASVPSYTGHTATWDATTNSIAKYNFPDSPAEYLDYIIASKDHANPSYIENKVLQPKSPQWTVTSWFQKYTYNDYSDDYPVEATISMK
Procedure: Agents, such as botanical extracts and related compounds, for example, are tested for their ability to increase the activity of sphingomyelinase in a sphingomyelinase/sphingomyelin-containing system. An increase in the activity of sphingomyelinase results in an increase in the hydrolysis of sphingomyelin and an increased production of ceramide. The Sphingomyelinase Activity Screening Test to determine the efficacy of an agent is completed as follows:
Step 1: Preparation of Testing Solution Comprising Sphingomyelinase, Sphingomyelin, and Agent: Combine the following to prepare a 100 microliter test solution: (1) 10 microliters of agent (such as a botanical extract, for example) where the agent is an aqueous solution or oil (if the agent is a powder or solid, prepare 10 microliters of a 0.1 microgram/milliliter solution by dissolving the appropriate amount of powder or solid in Phosphate Buffered Saline, pH=7.4); (2) 10 microliters of a 0.1 microgram/milliliter sphingomyelinase (Catalogue No. S7651, Sigma Chemical, St. Louis, Mo. (or equivalent)) in Phosphate Buffered Saline, pH=7.4, solution; (3) 10 microliters of a 250 microgram/milliliter BODIPY FL C5-Sphingomyelin (Molecular Probes, Eugene, Oreg. (or equivalent)) in Phosphate Buffered Saline, pH=7.4, solution; and (4) 70 microliters of Phosphate Buffered Saline, pH=7.4.
Step 2: Preparation of Control Testing Solution Comprising Sphingomyelinase and Sphingomyelin: Combine the following to prepare a 100 microliter test solution: (1) 10 microliters of a 0.1 microgram/milliliter sphingomyelinase in Phosphate Buffered Saline, pH=7.4, solution; (2) 10 microliters of a 250 microgram/milliliter BODIPY FL C5-Sphingomyelin in Phosphate Buffered Saline, pH=7.4, solution; and (3) 80 microliters of Phosphate Buffered Saline, pH=7.4. […]

CC(=O)Oc1c(C)c(C)c2c(c1C)CC[C@@](C)(CCC[C@H](C)CCC[C@H](C)CCCC(C)C)O2 [D1-alpha-Tocophenyl Acetate]
Effect on Ceramidase Activity [1]: ≧1 Times Activity | Effect on Sphingomyelinase Activity (sphingomyelinase): 0.6 Times Activity

Sunflower Seedaminopropyl Morpholine Lactate
Effect on Ceramidase Activity [1]: No Effect | Effect on Sphingomyelinase Activity (sphingomyelinase): 0.1 Times Activity

Potassium Laureth Phosphate
Effect on Ceramidase Activity [1]: No Effect | Effect on Sphingomyelinase Activity (sphingomyelinase): 0.1 Times Activity
